Laboratory results from ChEMBL document CHEMBL3991601, “The target landscape of clinical kinase drugs” (Science, 2017).
Active and inactive are the calls of the source.

Assays:
[1] = molecular target: T1, RNA cytidine acetyltransferase (Homo sapiens, UniProt Q9H0A0)
T1 sequence (Q9H0A0 whole entry): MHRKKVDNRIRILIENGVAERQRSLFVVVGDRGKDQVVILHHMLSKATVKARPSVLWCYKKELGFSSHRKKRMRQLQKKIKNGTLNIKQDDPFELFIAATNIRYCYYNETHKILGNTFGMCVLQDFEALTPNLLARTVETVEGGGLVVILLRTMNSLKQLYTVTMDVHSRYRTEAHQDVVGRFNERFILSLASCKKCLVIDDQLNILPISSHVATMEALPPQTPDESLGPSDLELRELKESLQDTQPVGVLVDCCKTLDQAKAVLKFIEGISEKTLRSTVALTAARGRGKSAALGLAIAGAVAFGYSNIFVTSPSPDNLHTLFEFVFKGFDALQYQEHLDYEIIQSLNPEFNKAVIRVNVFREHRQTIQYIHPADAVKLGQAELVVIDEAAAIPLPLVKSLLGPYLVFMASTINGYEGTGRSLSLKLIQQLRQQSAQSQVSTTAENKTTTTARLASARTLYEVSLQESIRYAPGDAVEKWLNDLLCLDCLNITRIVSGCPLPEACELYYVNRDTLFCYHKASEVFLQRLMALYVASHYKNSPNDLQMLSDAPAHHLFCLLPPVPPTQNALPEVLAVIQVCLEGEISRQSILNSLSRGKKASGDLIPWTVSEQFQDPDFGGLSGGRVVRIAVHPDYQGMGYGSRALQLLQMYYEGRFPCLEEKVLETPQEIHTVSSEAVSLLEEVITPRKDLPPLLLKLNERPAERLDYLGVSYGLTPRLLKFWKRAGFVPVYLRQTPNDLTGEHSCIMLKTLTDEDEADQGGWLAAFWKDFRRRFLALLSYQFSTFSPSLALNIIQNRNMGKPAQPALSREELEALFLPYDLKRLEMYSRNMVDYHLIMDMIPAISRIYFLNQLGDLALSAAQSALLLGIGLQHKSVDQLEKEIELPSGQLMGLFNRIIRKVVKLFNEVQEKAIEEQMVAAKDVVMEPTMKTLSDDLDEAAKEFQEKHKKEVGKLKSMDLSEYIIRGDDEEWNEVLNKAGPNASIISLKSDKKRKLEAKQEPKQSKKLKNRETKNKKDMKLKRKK

[2] = molecular target: T2, Dual specificity mitogen-activated protein kinase kinase 6 (Homo sapiens, UniProt P52564)
T2 sequence (P52564 whole entry): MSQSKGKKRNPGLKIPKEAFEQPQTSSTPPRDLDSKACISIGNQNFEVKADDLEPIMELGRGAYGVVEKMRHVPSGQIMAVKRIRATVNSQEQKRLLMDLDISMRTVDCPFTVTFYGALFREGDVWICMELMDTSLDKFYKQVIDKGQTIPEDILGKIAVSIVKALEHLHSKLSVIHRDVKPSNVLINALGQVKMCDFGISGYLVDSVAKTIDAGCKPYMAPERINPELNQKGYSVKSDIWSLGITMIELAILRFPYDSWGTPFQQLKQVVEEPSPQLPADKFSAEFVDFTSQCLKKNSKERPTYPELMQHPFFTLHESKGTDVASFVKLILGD

Ephrin type-B receptor 4 = molecular target: T3, Ephrin type-B receptor 4 (Homo sapiens, UniProt P54760)
T3 sequence (P54760 whole entry): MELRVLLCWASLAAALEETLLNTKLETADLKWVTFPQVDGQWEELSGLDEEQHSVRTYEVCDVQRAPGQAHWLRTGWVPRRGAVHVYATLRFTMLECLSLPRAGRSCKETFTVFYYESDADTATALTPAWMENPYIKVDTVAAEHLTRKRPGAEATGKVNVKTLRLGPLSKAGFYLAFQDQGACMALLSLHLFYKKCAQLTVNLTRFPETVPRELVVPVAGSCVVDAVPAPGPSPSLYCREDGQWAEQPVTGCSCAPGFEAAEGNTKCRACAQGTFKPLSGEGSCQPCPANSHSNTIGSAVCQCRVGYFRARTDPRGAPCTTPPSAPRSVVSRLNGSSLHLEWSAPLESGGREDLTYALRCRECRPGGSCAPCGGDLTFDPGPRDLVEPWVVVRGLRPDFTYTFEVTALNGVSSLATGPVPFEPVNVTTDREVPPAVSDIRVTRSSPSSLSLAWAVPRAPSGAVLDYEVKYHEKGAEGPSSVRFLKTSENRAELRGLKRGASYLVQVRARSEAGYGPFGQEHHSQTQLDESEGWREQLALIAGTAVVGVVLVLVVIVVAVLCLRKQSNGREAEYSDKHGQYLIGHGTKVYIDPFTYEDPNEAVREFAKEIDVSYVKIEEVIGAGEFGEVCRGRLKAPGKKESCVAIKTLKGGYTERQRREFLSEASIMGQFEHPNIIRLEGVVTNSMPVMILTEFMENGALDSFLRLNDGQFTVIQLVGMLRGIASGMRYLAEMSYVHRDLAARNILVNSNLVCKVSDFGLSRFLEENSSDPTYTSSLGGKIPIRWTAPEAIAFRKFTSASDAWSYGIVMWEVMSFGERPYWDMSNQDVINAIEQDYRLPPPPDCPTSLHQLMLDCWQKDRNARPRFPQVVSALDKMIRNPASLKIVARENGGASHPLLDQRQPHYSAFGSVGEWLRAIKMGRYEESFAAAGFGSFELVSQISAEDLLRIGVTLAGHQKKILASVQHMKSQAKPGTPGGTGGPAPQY

[3] = molecular target: Ribosomal protein S6 kinase alpha-5 (Homo sapiens, UniProt O75582)
Myosin-14 = Myosin-14 (Homo sapiens, UniProt Q7Z406)
[4] = molecular target: Mitogen-activated protein kinase 7 (Homo sapiens, UniProt Q13164)
[5] = molecular target: T4, Dual specificity mitogen-activated protein kinase kinase 3 (Homo sapiens, UniProt P46734)
T4 sequence (P46734 whole entry): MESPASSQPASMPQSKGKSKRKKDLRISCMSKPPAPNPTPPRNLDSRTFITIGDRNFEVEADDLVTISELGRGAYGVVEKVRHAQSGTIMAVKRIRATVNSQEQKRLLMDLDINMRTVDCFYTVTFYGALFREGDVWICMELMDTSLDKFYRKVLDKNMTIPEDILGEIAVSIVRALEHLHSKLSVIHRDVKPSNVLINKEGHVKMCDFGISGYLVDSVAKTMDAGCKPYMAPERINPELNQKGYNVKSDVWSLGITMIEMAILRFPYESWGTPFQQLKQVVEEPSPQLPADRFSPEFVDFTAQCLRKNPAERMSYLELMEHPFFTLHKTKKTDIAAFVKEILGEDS
Also: in the data inactive means no Kd found up to 30 µM.

Sequence of Mitogen-activated protein kinase 7 (Q13164 whole entry): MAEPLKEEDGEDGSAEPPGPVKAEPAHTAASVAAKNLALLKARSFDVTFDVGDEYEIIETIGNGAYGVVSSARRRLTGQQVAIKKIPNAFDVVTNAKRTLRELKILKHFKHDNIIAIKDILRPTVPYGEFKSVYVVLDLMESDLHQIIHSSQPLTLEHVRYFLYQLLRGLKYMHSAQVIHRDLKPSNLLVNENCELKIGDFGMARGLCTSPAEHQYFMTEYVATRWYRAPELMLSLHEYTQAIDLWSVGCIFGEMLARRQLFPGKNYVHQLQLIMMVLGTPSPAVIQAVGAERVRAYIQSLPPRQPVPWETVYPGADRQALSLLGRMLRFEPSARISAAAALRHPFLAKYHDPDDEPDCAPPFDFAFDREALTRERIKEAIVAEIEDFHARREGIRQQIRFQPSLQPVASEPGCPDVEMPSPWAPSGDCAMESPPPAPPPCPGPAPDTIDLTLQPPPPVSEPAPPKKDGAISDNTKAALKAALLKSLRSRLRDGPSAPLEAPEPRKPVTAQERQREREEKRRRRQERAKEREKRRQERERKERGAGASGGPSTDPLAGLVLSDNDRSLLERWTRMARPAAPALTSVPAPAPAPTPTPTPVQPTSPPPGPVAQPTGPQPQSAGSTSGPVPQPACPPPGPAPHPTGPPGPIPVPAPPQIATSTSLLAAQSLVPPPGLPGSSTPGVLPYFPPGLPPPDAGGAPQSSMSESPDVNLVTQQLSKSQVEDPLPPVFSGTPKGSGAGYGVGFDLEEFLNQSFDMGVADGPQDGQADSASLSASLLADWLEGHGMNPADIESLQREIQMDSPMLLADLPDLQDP
Sequence of Ribosomal protein S6 kinase alpha-5 (O75582 whole entry): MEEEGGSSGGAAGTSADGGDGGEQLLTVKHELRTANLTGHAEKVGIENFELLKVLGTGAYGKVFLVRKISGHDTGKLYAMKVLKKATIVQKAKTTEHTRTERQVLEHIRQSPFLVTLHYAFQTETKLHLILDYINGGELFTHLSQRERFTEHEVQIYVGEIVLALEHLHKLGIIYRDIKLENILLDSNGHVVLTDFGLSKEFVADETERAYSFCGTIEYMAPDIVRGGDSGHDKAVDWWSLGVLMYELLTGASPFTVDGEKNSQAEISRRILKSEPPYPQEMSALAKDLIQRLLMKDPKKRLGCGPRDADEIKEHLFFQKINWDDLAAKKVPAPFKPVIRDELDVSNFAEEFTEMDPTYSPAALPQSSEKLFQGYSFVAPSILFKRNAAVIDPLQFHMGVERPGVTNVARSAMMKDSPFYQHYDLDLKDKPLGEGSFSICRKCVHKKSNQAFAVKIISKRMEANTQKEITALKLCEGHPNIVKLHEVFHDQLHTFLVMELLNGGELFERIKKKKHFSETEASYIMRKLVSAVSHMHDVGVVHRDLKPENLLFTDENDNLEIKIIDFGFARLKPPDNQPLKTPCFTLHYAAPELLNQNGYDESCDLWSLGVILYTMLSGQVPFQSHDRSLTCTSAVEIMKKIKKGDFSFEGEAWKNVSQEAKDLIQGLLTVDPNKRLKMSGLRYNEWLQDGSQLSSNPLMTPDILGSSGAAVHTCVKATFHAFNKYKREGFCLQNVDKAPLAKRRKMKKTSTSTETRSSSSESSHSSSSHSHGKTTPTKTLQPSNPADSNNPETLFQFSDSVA
Sequence of Myosin-14 (Q7Z406 whole entry): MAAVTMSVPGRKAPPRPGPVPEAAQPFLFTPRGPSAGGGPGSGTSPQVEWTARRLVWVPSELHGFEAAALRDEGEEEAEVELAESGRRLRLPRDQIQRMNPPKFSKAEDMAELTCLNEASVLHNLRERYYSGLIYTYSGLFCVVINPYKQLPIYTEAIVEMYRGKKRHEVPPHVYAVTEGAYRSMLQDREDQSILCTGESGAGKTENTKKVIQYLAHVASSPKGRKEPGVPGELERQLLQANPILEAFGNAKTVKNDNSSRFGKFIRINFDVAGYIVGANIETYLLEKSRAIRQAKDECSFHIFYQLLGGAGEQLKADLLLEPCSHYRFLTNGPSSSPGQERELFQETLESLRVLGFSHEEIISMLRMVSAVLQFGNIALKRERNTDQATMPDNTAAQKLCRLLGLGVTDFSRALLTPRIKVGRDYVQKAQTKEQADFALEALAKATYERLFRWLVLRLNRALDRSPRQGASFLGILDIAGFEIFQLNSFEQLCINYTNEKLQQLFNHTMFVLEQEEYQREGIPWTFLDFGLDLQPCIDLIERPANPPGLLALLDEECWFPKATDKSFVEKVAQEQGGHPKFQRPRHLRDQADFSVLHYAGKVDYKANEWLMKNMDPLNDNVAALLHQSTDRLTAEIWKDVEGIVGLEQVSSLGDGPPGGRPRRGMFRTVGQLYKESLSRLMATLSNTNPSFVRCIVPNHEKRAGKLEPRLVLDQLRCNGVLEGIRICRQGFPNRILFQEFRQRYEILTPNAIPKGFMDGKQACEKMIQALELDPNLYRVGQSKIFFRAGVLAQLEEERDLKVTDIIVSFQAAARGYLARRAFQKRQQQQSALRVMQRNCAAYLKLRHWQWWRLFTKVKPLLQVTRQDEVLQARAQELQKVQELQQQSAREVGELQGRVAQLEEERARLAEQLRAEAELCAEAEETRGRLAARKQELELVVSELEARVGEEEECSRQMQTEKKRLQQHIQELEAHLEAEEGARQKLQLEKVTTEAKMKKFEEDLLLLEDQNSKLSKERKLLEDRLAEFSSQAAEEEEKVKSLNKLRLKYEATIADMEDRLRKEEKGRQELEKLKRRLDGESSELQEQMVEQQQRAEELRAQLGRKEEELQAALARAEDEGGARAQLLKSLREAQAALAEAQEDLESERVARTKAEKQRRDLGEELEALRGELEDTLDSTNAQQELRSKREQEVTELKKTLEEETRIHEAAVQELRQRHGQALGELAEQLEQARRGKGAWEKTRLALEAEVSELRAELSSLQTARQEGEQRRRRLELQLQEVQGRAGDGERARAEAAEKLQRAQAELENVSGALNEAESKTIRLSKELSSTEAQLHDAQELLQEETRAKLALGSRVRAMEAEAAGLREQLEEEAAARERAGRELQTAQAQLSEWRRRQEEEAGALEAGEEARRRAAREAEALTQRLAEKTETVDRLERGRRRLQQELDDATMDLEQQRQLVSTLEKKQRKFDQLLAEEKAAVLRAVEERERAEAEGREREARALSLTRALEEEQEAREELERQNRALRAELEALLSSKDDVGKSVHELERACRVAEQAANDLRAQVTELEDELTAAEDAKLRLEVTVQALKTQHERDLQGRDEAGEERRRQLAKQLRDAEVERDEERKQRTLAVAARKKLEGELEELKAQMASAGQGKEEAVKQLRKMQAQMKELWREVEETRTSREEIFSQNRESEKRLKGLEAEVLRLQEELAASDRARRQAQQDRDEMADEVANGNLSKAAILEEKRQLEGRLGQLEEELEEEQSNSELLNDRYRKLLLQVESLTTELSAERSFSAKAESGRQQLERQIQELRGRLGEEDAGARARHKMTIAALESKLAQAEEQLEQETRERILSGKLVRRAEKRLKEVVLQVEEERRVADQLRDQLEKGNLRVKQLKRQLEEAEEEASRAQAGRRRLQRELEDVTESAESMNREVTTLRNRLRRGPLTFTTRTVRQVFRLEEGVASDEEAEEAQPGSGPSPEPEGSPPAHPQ

| SMILES | Kd [1] | Kd [2] | Kd (Ephrin type-B receptor 4) | Kd [3] | Kd (Myosin-14) | Kd [4] | Kd [5] |
| --- | --- | --- | --- | --- | --- | --- | --- |
| CO[C@H]1C[C@@H]2CC[C@@H](C)[C@@](O)(O2)C(=O)C(=O)N2CCCC[C@H]2C(=O)O[C@H]([C@H](C)C[C@@H]2CC[C@@H](O)[C@H](OC)C2)CC(=O)[C@H](C)/C=C(\C)[C@@H](O)[C@@H](OC)C(=O)[C@H](C)C[C@H](C)/C=C/C=C/C=C/1C [SIROLIMUS] | > 30 µM (inactive) | > 30 µM (inactive) | > 30 µM (inactive) | > 30 µM (inactive) | > 30 µM (inactive) | > 30 µM (inactive) | > 30 µM (inactive) |
| CCS(=O)(=O)c1cccc(-c2cc(C(=O)NC3CCN(C)CC3)c(C)c3[nH]c4ncc(C)cc4c23)c1 [TAK-901] | > 30 µM (inactive) | > 30 µM (inactive) | 0.656 µM (active) | > 30 µM (inactive) | > 30 µM (inactive) | > 30 µM (inactive) | > 30 µM (inactive) |
| CO[C@H]1C[C@@H]2CC[C@@H](C)[C@@](O)(O2)C(=O)C(=O)N2CCCC[C@H]2C(=O)O[C@H]([C@H](C)C[C@@H]2CC[C@@H](OC(=O)C(C)(CO)CO)[C@H](OC)C2)CC(=O)[C@H](C)/C=C(\C)[C@@H](O)[C@@H](OC)C(=O)[C@H](C)C[C@H](C)/C=C/C=C/C=C/1C [TEMSIROLIMUS] | > 30 µM (inactive) | > 30 µM (inactive) | > 30 µM (inactive) | > 30 µM (inactive) | > 30 µM (inactive) | > 30 µM (inactive) | > 30 µM (inactive) |
| COc1cc2c(Nc3ccc(Cl)c(Cl)c3F)ncnc2cc1OC[C@@H]1C[C@@H]2CN(C)C[C@@H]2C1 [TESEVATINIB] | > 30 µM (inactive) | > 30 µM (inactive) | 0.037 µM (active) | > 30 µM (inactive) | > 30 µM (inactive) | > 30 µM (inactive) | > 30 µM (inactive) |
| O=C(Cc1ccc(-c2ccc(OCCN3CCOCC3)cc2)cn1)NCc1ccccc1 [TIRBANIBULIN] | > 30 µM (inactive) | > 30 µM (inactive) | > 30 µM (inactive) | > 30 µM (inactive) | > 30 µM (inactive) | > 30 µM (inactive) | > 30 µM (inactive) |
| O=C1NC(=O)[C@@H](c2cn3c4c(cccc24)CCC3)[C@@H]1c1c[nH]c2ccccc12 [TIVANTINIB] | > 30 µM (inactive) | > 30 µM (inactive) | > 30 µM (inactive) | > 30 µM (inactive) | > 30 µM (inactive) | > 30 µM (inactive) | > 30 µM (inactive) |
| C[C@@H](NC(=O)c1ncnc(N)c1Cl)c1ncc(C(=O)Nc2cc(C(F)(F)F)c(Cl)cn2)s1 [TOVORAFENIB] | > 30 µM (inactive) | > 30 µM (inactive) | 9.43 µM (active) | > 30 µM (inactive) | > 30 µM (inactive) | > 30 µM (inactive) | > 30 µM (inactive) |
| Cc1cc(Nc2ncnc3ccc(NC4=NC(C)(C)CO4)cc23)ccc1Oc1ccn2ncnc2c1 [TUCATINIB] | > 30 µM (inactive) | > 30 µM (inactive) | > 30 µM (inactive) | > 30 µM (inactive) | 0.188 µM | > 30 µM (inactive) | > 30 µM (inactive) |
| CC(C)c1cc(CNc2nc(Nc3cc(C4CC4)[nH]n3)cc(N3CCN(C)CC3)n2)on1 [XL-228] | > 30 µM (inactive) | > 30 µM (inactive) | 0.292 µM (active) | > 30 µM (inactive) | > 30 µM (inactive) | > 30 µM (inactive) | > 30 µM (inactive) |
| C[C@@H](N)c1ccc(C(=O)Nc2ccnc3[nH]ccc23)cc1 [Y-39983] | > 30 µM (inactive) | > 30 µM (inactive) | > 30 µM (inactive) | > 30 µM (inactive) | > 30 µM (inactive) | > 30 µM (inactive) | > 30 µM (inactive) |
| CN1C/C=C/CCOc2cccc(c2)-c2ccnc(n2)Nc2cccc(c2)C1 [ZOTIRACICLIB] | > 30 µM (inactive) | > 30 µM (inactive) | > 30 µM (inactive) | > 30 µM (inactive) | > 30 µM (inactive) | > 30 µM (inactive) | > 30 µM (inactive) |
